Data: PubChem BioAssay AID250 (DTP/NCI, 2004)
Where “and” joins values, the source holds several entries; their conditions need not be identical. Equal values may be shown once. Inconclusive results and toxic doses are left out.

Tested on: BDF1 mice, L1210 leukemia sc, survival T/C
Assay: NCI In Vivo Anticancer Drug Screen. Data for tumor model L1210 Leukemia (subcutaneous) in B6D2F1 (BDF1) mice
Conditions: higher = longer survival
Summary of the method: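 Transplantable tumor-bearing mice; survival or tumor size recorded; result = T/C, treated vs vehicle control.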

[1] = endpoint: median survival time, dose: 23.0 mg/kg/injection, schedule: Q01DX Z (sc), vehicle: water
[2] = endpoint: median survival time, dose: 108.0 mg/kg/injection, schedule: Q01DX Z (sc), vehicle: methylcellulose (MC)
[3] = endpoint: median survival time, dose: 300.0 mg/kg/injection, schedule: Q01DX Z (sc), vehicle: methylcellulose (MC)
[4] = endpoint: median survival time, dose: 3.0 mg/kg/injection, schedule: Q01DX Z (sc), vehicle: methylcellulose (MC)
[5] = endpoint: median survival time, dose: 5.0 mg/kg/injection, schedule: Q01DX Z (sc), vehicle: methylcellulose (MC)

## CN(Cc1cnc2nc(N)nc(N)c2n1)c1cccc(C(=O)NC(CCC(=O)O)C(=O)O)c1 (centres undefined)
endpoint: mean survival time, dose: 1.0 mg/kg/injection, schedule: Q01DX009 (ip), vehicle: sodium bicarbonate
  T/C: 111 % of control
endpoint: mean survival time, dose: 2.0 mg/kg/injection, schedule: Q01DX009 (ip), vehicle: sodium bicarbonate
  T/C: 107 % of control
endpoint: mean survival time, dose: 4.0 mg/kg/injection, schedule: Q01DX009 (ip), vehicle: sodium bicarbonate
  T/C: 111 % of control
endpoint: mean survival time, dose: 4.0 mg/kg/injection, schedule: Q04DX003 (ip), vehicle: sodium bicarbonate
  T/C: 113 % of control
endpoint: mean survival time, dose: 8.0 mg/kg/injection, schedule: Q01DX009 (ip), vehicle: sodium bicarbonate
  T/C: 111 % of control
endpoint: mean survival time, dose: 8.0 mg/kg/injection, schedule: Q04DX003 (ip), vehicle: sodium bicarbonate
  T/C: 111 % of control
endpoint: mean survival time, dose: 16.0 mg/kg/injection, schedule: Q01DX009 (ip), vehicle: sodium bicarbonate
  T/C: 114 % of control
endpoint: mean survival time, dose: 16.0 mg/kg/injection, schedule: Q04DX003 (ip), vehicle: sodium bicarbonate
  T/C: 108 % of control
endpoint: mean survival time, dose: 32.0 mg/kg/injection, schedule: Q04DX003 (ip), vehicle: sodium bicarbonate
  T/C: 108 % of control
endpoint: mean survival time, dose: 64.0 mg/kg/injection, schedule: Q04DX003 (ip), vehicle: sodium bicarbonate
  T/C: 119 % of control

## CCOC1=C(N2CC2)C(=O)C(OCC)=C(N2CC2)C1=O
endpoint: median survival time, dose: 3.0 mg/kg/injection, schedule: Q01DX Z (sc), vehicle: carboxymethylcellulose (CMC)
  T/C: 109 % of control
endpoint: median survival time, dose: 14.0 mg/kg/injection, schedule: Q01DX Z (sc), vehicle: carboxymethylcellulose (CMC)
  T/C: 122 % of control
endpoint: median survival time, dose: 23.0 mg/kg/injection, schedule: Q01DX Z (sc), vehicle: carboxymethylcellulose (CMC)
  T/C: 109 % of control

## CCCCC(=O)N(c1ccc(Nc2c3ccccc3nc3cc([N+](=O)[O-])ccc23)cc1)S(C)(=O)=O
endpoint: mean survival time, dose: 3.18 mg/kg/injection, schedule: Q01DX009 (sc), vehicle: saline
  T/C: 107 % of control
endpoint: mean survival time, dose: 6.25 mg/kg/injection, schedule: Q01DX009 (sc), vehicle: saline
  T/C: 112 % of control
endpoint: mean survival time, dose: 25.0 mg/kg/injection, schedule: Q01DX009 (sc), vehicle: saline
  T/C: 168 % of control

## COc1cccc2c1C(=O)c1c(O)c3c(c(O)c1C2=O)C[C@@](O)(C(C)=O)C[C@@H]3OC1CC(N)C(O)C(C)O1 (some centres undefined)
endpoint: median survival time, dose: 1.0 mg/kg/injection, schedule: Q04DX003 (ip), vehicle: saline
  T/C: 88 % of control
endpoint: median survival time, dose: 2.0 mg/kg/injection, schedule: Q04DX003 (ip), vehicle: saline
  T/C: 90 % of control
endpoint: median survival time, dose: 3.0 mg/kg/injection, schedule: Q01DX Z (sc), vehicle: saline
  T/C: 95 % of control and 100 % of control
endpoint: median survival time, dose: 3.1 mg/kg/injection, schedule: Q01DX Z (sc), vehicle: saline
  T/C: 95 % of control
endpoint: median survival time, dose: 4.0 mg/kg/injection, schedule: Q04DX003 (ip), vehicle: saline
  T/C: 89 % of control
endpoint: median survival time, dose: 5.0 mg/kg/injection, schedule: Q01DX Z (sc), vehicle: saline
  T/C: 100 % of control and 115 % of control
endpoint: median survival time, dose: 5.0 mg/kg/injection, schedule: Q01DX Z (sc), vehicle: water
  T/C: 104 % of control
endpoint: median survival time, dose: 5.2 mg/kg/injection, schedule: Q01DX Z (sc), vehicle: saline
  T/C: 100 % of control
endpoint: median survival time, dose: 6.5 mg/kg/injection, schedule: Q04DX003 (sc), vehicle: water
  T/C: 105 % of control and 111 % of control
endpoint: median survival time, dose: 8.4 mg/kg/injection, schedule: Q01DX Z (sc), vehicle: saline
  T/C: 150 % of control
endpoint: median survival time, dose: 10.8 mg/kg/injection, schedule: Q04DX003 (sc), vehicle: water
  T/C: 109 % of control and 111 % of control
endpoint: median survival time, dose: 14.0 mg/kg/injection, schedule: Q01DX Z (sc), vehicle: saline
  T/C: 120 % of control
endpoint: median survival time, dose: 14.0 mg/kg/injection, schedule: Q01DX Z (sc), vehicle: water
  T/C: 123 % of control
endpoint: median survival time, dose: 23.0 mg/kg/injection, schedule: Q01DX Z (sc), vehicle: saline
  T/C: 110 % of control and 120 % of control
[1]
  T/C: 109 % of control
endpoint: median survival time, dose: 24.0 mg/kg/injection, schedule: Q01DX Z (sc), vehicle: saline
  T/C: 120 % of control
endpoint: median survival time, dose: 30.0 mg/kg/injection, schedule: Q04DX003 (sc), vehicle: water
  T/C: 99 % of control and 100 % of control
endpoint: median survival time, dose: 39.0 mg/kg/injection, schedule: Q01DX Z (sc), vehicle: saline
  T/C: 110 % of control
endpoint: median survival time, dose: 39.0 mg/kg/injection, schedule: Q01DX Z (sc), vehicle: water
  T/C: 104 % of control
endpoint: median survival time, dose: 40.0 mg/kg/injection, schedule: Q01DX Z (sc), vehicle: saline
  T/C: 110 % of control
endpoint: median survival time, dose: 65.0 mg/kg/injection, schedule: Q01DX Z (sc), vehicle: water
  T/C: 95 % of control

## C=CCCCCCCCCC(C)(N)C(=O)O (centres undefined)
endpoint: median survival time, dose: 14.0 mg/kg/injection, schedule: Q01DX Z (sc), vehicle: methylcellulose (MC)
  T/C: 100 % of control
endpoint: median survival time, dose: 23.0 mg/kg/injection, schedule: Q01DX Z (sc), vehicle: methylcellulose (MC)
  T/C: 90 % of control
endpoint: median survival time, dose: 39.0 mg/kg/injection, schedule: Q01DX Z (sc), vehicle: methylcellulose (MC)
  T/C: 90 % of control
endpoint: median survival time, dose: 65.0 mg/kg/injection, schedule: Q01DX Z (sc), vehicle: methylcellulose (MC)
  T/C: 95 % of control
[2]
  T/C: 95 % of control
endpoint: median survival time, dose: 180.0 mg/kg/injection, schedule: Q01DX Z (sc), vehicle: methylcellulose (MC)
  T/C: 100 % of control
[3]
  T/C: 95 % of control

## Cn1cnc([N+](=O)[O-])c1Sc1nc(N)nc2nc[nH]c12
endpoint: median survival time, dose: 1.3 mg/kg/injection, schedule: Q01DX Z (sc), vehicle: methylcellulose (MC)
  T/C: 110 % of control
endpoint: median survival time, dose: 2.16 mg/kg/injection, schedule: Q01DX Z (sc), vehicle: methylcellulose (MC)
  T/C: 90 % of control and 110 % of control
[4]
  T/C: 109 % of control
endpoint: median survival time, dose: 3.6 mg/kg/injection, schedule: Q01DX Z (oral), vehicle: methylcellulose (MC)
  T/C: 100 % of control
endpoint: median survival time, dose: 3.6 mg/kg/injection, schedule: Q01DX Z (sc), vehicle: methylcellulose (MC)
  T/C: 100 % of control
[5]
  T/C: 118 % of control
endpoint: median survival time, dose: 6.0 mg/kg/injection, schedule: Q01DX Z (oral), vehicle: methylcellulose (MC)
  T/C: 109 % of control
endpoint: median survival time, dose: 8.4 mg/kg/injection, schedule: Q01DX Z (oral), vehicle: methylcellulose (MC)
  T/C: 109 % of control
endpoint: median survival time, dose: 10.0 mg/kg/injection, schedule: Q01DX Z (oral), vehicle: methylcellulose (MC)
  T/C: 100 % of control
endpoint: median survival time, dose: 14.0 mg/kg/injection, schedule: Q01DX Z (oral), vehicle: methylcellulose (MC)
  T/C: 122 % of control
endpoint: median survival time, dose: 17.0 mg/kg/injection, schedule: Q01DX Z (oral), vehicle: methylcellulose (MC)
  T/C: 113 % of control
endpoint: median survival time, dose: 28.0 mg/kg/injection, schedule: Q01DX Z (oral), vehicle: methylcellulose (MC)
  T/C: 113 % of control
endpoint: median survival time, dose: 47.0 mg/kg/injection, schedule: Q01DX Z (oral), vehicle: methylcellulose (MC)
  T/C: 109 % of control
endpoint: median survival time, dose: 47.0 mg/kg/injection, schedule: Q01DX Z (sc), vehicle: methylcellulose (MC)
  T/C: 150 % of control
endpoint: median survival time, dose: 65.0 mg/kg/injection, schedule: Q01DX Z (oral), vehicle: methylcellulose (MC)
  T/C: 154 % of control
endpoint: median survival time, dose: 78.0 mg/kg/injection, schedule: Q01DX Z (oral), vehicle: methylcellulose (MC)
  T/C: 118 % of control
endpoint: median survival time, dose: 108.0 mg/kg/injection, schedule: Q01DX Z (oral), vehicle: methylcellulose (MC)
  T/C: 154 % of control
endpoint: median survival time, dose: 130.0 mg/kg/injection, schedule: Q01DX Z (oral), vehicle: methylcellulose (MC)
  T/C: 113 % of control
endpoint: median survival time, dose: 216.0 mg/kg/injection, schedule: Q01DX Z (oral), vehicle: methylcellulose (MC)
  T/C: 118 % of control

## CCOC(N)=O
endpoint: median survival time, dose: 65.0 mg/kg/injection, schedule: Q01DX Z (sc), vehicle: saline
  T/C: 95 % of control
endpoint: median survival time, dose: 108.0 mg/kg/injection, schedule: Q01DX Z (sc), vehicle: saline
  T/C: 100 % of control
endpoint: median survival time, dose: 180.0 mg/kg/injection, schedule: Q01DX Z (sc), vehicle: saline
  T/C: 100 % of control
endpoint: median survival time, dose: 300.0 mg/kg/injection, schedule: Q01DX Z (sc), vehicle: saline
  T/C: 100 % of control
endpoint: median survival time, dose: 500.0 mg/kg/injection, schedule: Q01DX Z (sc), vehicle: saline
  T/C: 90 % of control

## CS(C)=O
endpoint: median survival time, dose: 1.5 grams/kg/injection, schedule: Q01DX009 (ip), vehicle: saline
  T/C: 103 % of control
endpoint: median survival time, dose: 3.0 grams/kg/injection, schedule: Q01DX009 (ip), vehicle: saline
  T/C: 97 % of control
endpoint: median survival time, dose: 6.0 grams/kg/injection, schedule: Q01DX009 (ip), vehicle: saline
  T/C: 103 % of control

## CC/C(=C(/CC)c1ccc(O)cc1)c1ccc(O)cc1
[2]
  T/C: 100 % of control
[3]
  T/C: 100 % of control

## C[n+]1c2cc(N)ccc2cc2ccc(N)cc21
[1]
  T/C: 90 % of control and 100 % of control

## CN(C)c1ccc(/C=C/c2ccc3ccccc3[n+]2C)cc1
endpoint: median survival time, dose: 0.65 mg/kg/injection, schedule: Q01DX Z (sc), vehicle: methylcellulose (MC)
  T/C: 100 % of control
endpoint: median survival time, dose: 1.08 mg/kg/injection, schedule: Q01DX Z (sc), vehicle: methylcellulose (MC)
  T/C: 100 % of control
endpoint: median survival time, dose: 1.8 mg/kg/injection, schedule: Q01DX Z (sc), vehicle: methylcellulose (MC)
  T/C: 104 % of control
[4]
  T/C: 104 % of control
[5]
  T/C: 104 % of control
